From PubChem BioAssay (NCI)
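How tested: cells in 96-well plates exposed to compound for 48 hours at five concentrations. TGI denotes the concentration required for complete inhibition of growth.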

Legend:
Experiment in all cases: NCI anticancer screen, dose series, 48 h
EKVX NSCLC = tested on: EKVX NSCLC
IGROV1 ovarian = tested on: IGROV1 ovarian
NCI/ADR-RES ovarian = tested on: NCI/ADR-RES ovarian
MOLT-4 leukemia = tested on: MOLT-4 leukemia
HCT-116 colon = tested on: HCT-116 colon
SK-MEL-28 melanoma = tested on: SK-MEL-28 melanoma
MDA-MB-435 = tested on: MDA-MB-435
RXF 393 renal = tested on: RXF 393 renal
HCT-15 colon = tested on: HCT-15 colon
SK-OV-3 ovarian = tested on: SK-OV-3 ovarian
UO-31 renal = tested on: UO-31 renal
786-0 renal = tested on: 786-0 renal
SK-MEL-2 melanoma = tested on: SK-MEL-2 melanoma
HT29 colon = tested on: HT29 colon
LOX IMVI melanoma = tested on: LOX IMVI melanoma
SR leukemia = tested on: SR leukemia
NCI-H23 lung = tested on: NCI-H23 lung
HOP-92 NSCLC = tested on: HOP-92 NSCLC
HL-60(TB) leukemia = tested on: HL-60(TB) leukemia

Compound	TGI (EKVX NSCLC) [µM]	TGI (IGROV1 ovarian) [µM]	TGI (NCI/ADR-RES ovarian) [µM]	TGI (MOLT-4 leukemia) [µM]	TGI (HCT-116 colon) [µM]	TGI (SK-MEL-28 melanoma) [µM]	TGI (MDA-MB-435) [µM]	TGI (RXF 393 renal) [µM]	TGI (HCT-15 colon) [µM]	TGI (SK-OV-3 ovarian) [µM]	TGI (UO-31 renal) [µM]	TGI (786-0 renal) [µM]	TGI (SK-MEL-2 melanoma) [µM]	TGI (HT29 colon) [µM]	TGI (LOX IMVI melanoma) [µM]	TGI (SR leukemia) [µM]	TGI (NCI-H23 lung) [µM]	TGI (HOP-92 NSCLC) [µM]	TGI (HL-60(TB) leukemia) [µM]
NC(=O)NNc1nc2ccccc2c(=O)n1NC(=O)C(=O)Nc1ccc(Cl)cc1Cl	> 100	> 100	> 100	> 100	> 100	> 100	> 100	> 100	> 100	> 100	> 100	> 100	> 100	> 100	> 100	> 100	> 100	> 100	
NC(=O)N/N=C1\CCCCc2ccccc21	> 10		> 10	> 10	> 10		> 10	> 10	> 10		> 10	> 10	> 10	> 10		> 10	> 10	> 10	
O=S(=O)(O)c1ccc(O)c2ncc(Cl)cc12	> 100	> 100	> 100	> 100	> 100	> 100	> 100	> 100	> 100		> 100	> 100	> 100	> 100	> 100	> 100	> 100	> 100	
C/C(=N/NC(=S)Nc1ccc([N+](=O)[O-])cc1)c1cccc(/C(C)=N\NC(=S)Nc2ccc([N+](=O)[O-])cc2)n1	12.8	8.11	> 29.9		12.2	> 100	> 38.7	4.73	2.67	10.7	4.97	11.6	23.6	16	12.7	2.33	12.2	11.6	
CCN(CC)CCCNc1nc(=O)[nH]c(C)c1C(=O)Nc1cccc2cc3ccccc3cc12	> 100	> 100	> 100	> 100	> 100	> 100	> 100	> 100	> 100	> 100	> 100	> 100	> 100	> 100	> 100		> 100	> 100	> 100
O=C(/C=C/c1ccccc1)CCN1CCN(CCC(=O)/C=C/c2ccccc2)CC1	35.2	33.1	60.7	85.5	5.28	27.8	14.8	28.8	23	> 100	30.8	18.9	37.5	30.4	5.88		31.2	35.9	> 100
N#CCc1nc2ccccc2c(=O)[nH]1	> 100	> 100	> 100	> 100	> 100	> 100	> 100		> 100	> 100	> 100	> 100	> 100	> 100	> 100		> 100	> 100	> 100
COc1ccc(OCc2nc3cc(C(F)(F)F)ccc3nc2-c2ccccc2)cc1	> 100		> 100	> 100	> 100	> 100	> 100	> 100	> 100	> 100	> 100	> 100	> 100	> 100	> 100		> 100	> 100	> 100
O=C(/C=C/c1ccccc1)/C=N/N1C(=S)N(c2ccccc2)C(=Nc2ccccc2)C1=Nc1ccccc1	> 100	> 100	> 100	> 100	> 100	> 100		> 100	> 100	> 100	> 100	> 100	> 100	> 100		> 100	> 100	> 100	
COc1ccc2c(C)cc(N/N=C(\C)C=O)nc2c1	32.8	33.5	25.7	15.9	26.5	32.4	25.5	30.2	15.2	23.2	26.4	28.6	33.1	25	24	3.79	24.8	25.1	
CC(C)(Br)C(Br)CCC(C)(Br)C(Br)CO (centres undefined)	> 10	> 10	> 10	> 10	> 10	> 10	> 10	> 10	> 10	> 10	> 10	> 10		> 10			> 10	> 10	
CCOC(=O)c1ccc(N=C2C(=S)N(c3ccc(C(=O)OCC)cc3)C(=N)N2/N=C/c2ccccc2)cc1	> 100	> 100	> 100		30.5			19.3	> 100	59	28.9	30	> 100	> 100		> 100		36.2	
COc1ccc(/C=C2\NC(=S)N(CN3CCCCC3)C2=O)cc1	> 100	> 100	> 100	> 100	> 100	> 100	> 100		> 100	> 100	> 100	> 100	> 100	41	93.3	> 100	> 100	> 100	
CC(=O)N1C(=O)/C(=C\C(=O)c2ccc([N+](=O)[O-])cc2)c2ccccc21	51.6	53.9	> 100	51.6	37.8		61.2	> 100	32.1	> 100	63	29.1	> 100	34.6		20.3	88.7		
COc1ccc2nc(-n3c(/C=C/c4ccccc4O)nc4ccccc4c3=O)sc2c1	39.7	> 100	> 100	> 100	65.3	> 100	49.2	> 100	> 100	> 100	> 100	> 100	> 100	> 100	> 100		> 100	> 100	> 100
CCC1C(C#N)=C(N)OC2=C1C(=O)CC(C)(C)C2 (centres undefined)	> 100	> 100	> 100	> 100	> 100	> 100	> 100		> 100	> 100		> 100	> 100	> 100	> 100		> 100	> 100	> 100
CC(=O)OCOC(=O)CN(CC(=O)OCOC(C)=O)Cc1cc2c(cc1OC(C)=O)Oc1cc(OC(C)=O)c(CN(CC(=O)OCOC(C)=O)CC(=O)OCOC(C)=O)cc1C21OC(=O)c2ccccc21	10.6	1.36	75	0.843	1.5	1.76	2.02	1.43	7.05	9.4	6.38	1.41	2.33	1.88	1.29		2.51	3.06	0.0289
O=C1C(Cl)=C(OCCCCl)C(=O)c2c(O)ccc(O)c21	40.9	13.1	24.3	1.86	3.91	4.48		4.38	5.06	35.9	12.1	4.81		5	3.35	1.2	5.53	3.28	
COC12OC3(C4OC41)C(C(=O)O[C@H]3CO[Si](C)(C)C(C)(C)C)C2C(=O)Oc1ccccc1 (some centres undefined)	> 100	> 100	> 100	> 100	> 100	> 100	> 100		> 100	> 100	> 100	> 100	> 100	> 100	> 100	> 100	> 100	> 100	
CCOC(=O)c1c(N)sc2c1C(C(=O)OCC)CC2 (centres undefined)	> 100	> 100		> 100	> 100	> 100		> 100	> 100		> 100	> 100	> 100	> 100		> 100	> 100	> 100	> 100
COC(=O)C(CC12CC3CC(CC(C3)C1)C2)NC(=O)C(N)CC(=O)O (centres undefined)	> 100	> 100	> 100	> 100	> 100	> 100	> 100	> 100	> 100	> 100	> 100	> 100	> 100	> 100		> 100	> 100	> 100	
O=C(/C=C/c1csc(-c2ccccc2)n1)NCc1ccc(C(=O)NCCc2ccccc2)cc1	> 100	> 100	> 100	> 100	> 100	> 100	> 100	23.4	> 100	56.2	> 100	32.7	> 100	30.4	> 100	> 100	> 100	36.8	
CCCCCCCCCCCC(=O)Oc1c(Cl)cc(Cl)c(OC(=O)C(=O)Oc2c(Cl)cc(Cl)c(OC(=O)CCCCCCCCCCC)c2Cl)c1Cl	> 100	> 100	> 100	> 100	> 100	> 100	> 100	> 100		> 100	> 100	> 100		> 100	> 100	> 100	> 100	> 100	
N#CC12C(=O)N3C(=NC(c4ccccc4)NC3c3ccccc3)C1(C#N)C(c1ccccc1)NC1=C2CCC1 (centres undefined)	> 100	> 100	> 100	> 100	> 100	> 100	> 100	> 100	> 100	> 100	> 100	> 100	> 100	> 100	> 100		> 100	> 100	> 100
CC12CCC(CC1=O)C2(C)CCC(N)=O (centres undefined)	> 100	> 100	> 100	> 100	> 100	> 100	> 100	> 100	> 100	> 100	> 100	> 100	> 100	> 100			> 100		
N=c1oc2cc(O)ccc2cc1C(=O)NCc1ccccc1	> 100	> 100	53.5	53.3	71.3	> 100	58.3	85	> 100	70	> 100	> 100	34.2	> 100	> 100	67	58.7		
CCOC(=O)C1=[N+]([O-])OC2=C(O)CCCC21 (centres undefined)	> 100	> 100	> 100	> 100	> 100	> 100	> 100	> 100	> 100	> 100	> 100	> 100	> 100	> 100	> 100	> 100	> 100	> 100	
